Patent publication US6573045B1, “Methods and kits for discovery of RNA-binding compounds” (Ribotargets, Ltd., priority 1998, dated 2003)
Values joined by “and” are separate entries in the source; they are usually repeats but may differ in a detail not shown here. Equal entries are not always repeated. Ends that are not written are not given here. * marks the point of attachment. TAMRA = tetramethylrhodamine (fluorescent label); DABCYL = CN(C)c1ccc(/N=N/c2ccc(C(=O)*)cc2)cc1

Assays:
RRE RNA = experiment: Dabcyl-peptide binding to Fam-labelled RNA (quenching), RRE; design: species or system HIV; conditions: RRE, 110 mM KCl
Excerpt: (§1) A representative subset comprising 40 peptide sequences from the total of 243 possible sequences was synthesised and is shown in Table 6. The peptides from the library are: No. 3 (SEQ ID NO:11), 4 (SEQ ID NO:12), 5 (SEQ ID NO:13), 6 (SEQ ID NO:14), 7 (SEQ ID NO:15), 8 (SEQ ID NO:16), 9 (SEQ ID NO:17), 10 (SEQ ID NO:18), 11 (SEQ ID NO:19), 12 (SEQ ID NO:20), 13 (SEQ ID NO:21), 14 (SEQ ID NO:22), 15 (SEQ ID NO:23), 16 (SEQ ID NO:24), 17 (SEQ ID NO:25), 18 (SEQ ID NO:26), 19 (SEQ ID NO:27), 20 (SEQ ID NO:28), 21 (SEQ ID NO:29), 22 (SEQ ID NO:30), 23 (SEQ ID NO:31), 24 (SEQ ID NO:32), 25 (SEQ ID NO:33), 26 (SEQ ID NO:34), 27 (SEQ ID NO:35), 28 (SEQ ID NO:36), 29 (SEQ ID NO:37), 30 (SEQ ID NO:38), 31 (SEQ ID NO:39), 32 (SEQ ID NO:40), 33 (SEQ ID NO:41), 34 (SEQ ID NO:42), 35 (SEQ ID NO:43), 36 (SEQ ID NO:44), 37 (SEQ ID NO:45), 38 (SEQ ID NO:46), 39 (SEQ ID NO:47), 40 (SEQ ID NO:48), 41 (SEQ ID NO:49), 42 (SEQ ID NO:50). These peptides were assayed for their ability to bind to range of RNA sequences carrying fluorescein attached to the 5′ end, as shown in FIG. 25.
(§2) FIG. 26. presents binding data for the peptide sequence 5 (KKQKR) (SEQ ID NO: 13) and the 4 RNA sequences. Reactions (100 μl) containing Fam-labelled RNA (10 nM) were mixed with increasing concentrations of Dabcyl-labelled ADP-1 peptide (up to 250 nM) in 50 mM Tris/Cl, pH7.4, 20 mM or 110 mM KCl (as indicated), 5 μg/ml BSA, 0.01% Triton X-100, 1% DMSO. Fluorescence (excitation 490 nm/emission at 535 nm) was determined using a Victor plate reader.
(§3) Dissociation constants were determined by fitting a binding isotherm (1-site-binding) to the data using the equation:
(§4) Y=((Fmax−Fmin)−((Fmax−Fmin)*X/(Kd+X)))+Fmin
(§5) where Fmax is fluorescence in the absence of quencher, Fmin is fluorescence at saturation, and X is peptide concentration.

TAR bulge RNA = experiment: Dabcyl-peptide binding to Fam-labelled RNA (quenching), TAR; design: species or system HIV; conditions: 110 mM KCl
Excerpt: as §1, §2, §3, §4, §5

FAM-TAR RNA = experiment: Quenching of FAM-TAR RNA by DABCYL-labelled ADP-1; assay type: binding, HIV; conditions: 20 nM FAM-TAR, FIG. 19
Method: It is also possible to place a fluorescent group on the RNA target and a quenching group on the reporter molecule. […] The DABCYL-ADP-1 was pre-treated in the presence of 1% TFA at room temperature for 5 minutes prior to dilution into binding buffer (0.01% Triton X-100, 5 μg/ml BSA, 1% DMSO, 50 mM Tris-HCl pH 7.6, 20 mM KCl) and incubated on ice prior to complex formation.
Reactions were equilibrated at room temperature for 15 minutes prior to analysis in the Wallac Victor2 plate reader. The reactions were excited at 485 nm and fluorescence emission recorded at 535 nm. The fluorescence emission signal of the 20 nM FAM-TAR is progressively quenched after addition of increasing amounts of DABCYL-ADP-1 peptide. The experimental data shown in FIG. 19 was analysed in GraphPad PRISMTM using a non linear regression fit for single site binding.

GTPase-LHL RNA = experiment: Dabcyl-peptide binding to Fam-labelled RNA (quenching), GTPase LHL; conditions: GTPase-LHL, 110 mM KCl
Excerpt: as §1, §2, §3, §4, §5

ss-19mer RNA = experiment: Dabcyl-peptide binding to Fam-labelled RNA (quenching), single stranded RNA; conditions: ss-19mer, 110 mM KCl
Excerpt: as §1, §2, §3, §4, §5

DABCYL-TAR RNA = experiment: Quenching of TAMRA-labelled Rev peptide by DABCYL-TAR RNA; assay type: binding, HIV; conditions: 20 nM TAMRA-Rev, increasing DABCYL-TAR, FIG. 22
Method: 20 nM TAMRA-Rev was incubated with increasing concentrations of DABCYL-TAR. The TAMRA-Rev was pre-treated in the presence of 1% TFA at room temperature for 5 minutes prior to dilution into storage buffer (0.01% Triton X-100, 5 μg/ml BSA, 1% DMSO, 50 mM Tris-HCl pH 8, 50 mM KCl) and incubated on ice prior to complex formation. Reactions were equilibrated at room temperature for 15 minutes prior to analysis in the Wallac Victor2 plate reader. The reactions were excited at 544 nm and fluorescence emission recorded at 570 nm. The fluorescence emission signal of the 20 nM TAMRA-Rev alone was subtracted from each signal obtained in the presence of increasing amounts of DABCYL-TAR and plotted as a function of DABCYL-TAR concentration (FIG. 22) in GraphPad PRISMTM using a non linear regression fit for single site binding.

DABCYL-RRE RNA = experiment: Quenching of TAMRA-labelled Rev peptide by DABCYL-RRE RNA; assay type: binding, HIV; conditions: 20 nM TAMRA-Rev, increasing DABCYL-RRE, FIG. 21
Method: In the experiment shown in FIG. 21, 20 nM TAMRA-Rev was incubated with increasing concentrations of DABCYL-RRE. The TAMRA-Rev was pre-treated in the presence of 1% TFA at room temperature for 5 minutes prior to dilution in to storage buffer (0.01% Triton X-100, 5 μg/ml BSA, 1% DMSO, 50 mM Tris-HCl pH 8, 50 mM KCl) and incubated on ice prior to complex formation. Reactions were equilibrated at room temperature for 15 minutes prior to analysis in the Wallac Victor2 plate reader. The reactions were excited at 544 nm and fluorescence emission recorded at 570 nm. The fluorescence emission signal of the 20 nM TAMRA-Rev alone was subtracted from each signal obtained in the presence of increasing amounts of DABCYL-RRE and plotted as a function of DABCYL-RRE concentration (FIG. 21) in GraphPad PRISMTM using a non linear regression fit for single site binding.

Substance	Kd (RRE RNA) [nM]	Kd (TAR bulge RNA)	Kd (FAM-TAR RNA) [nM]	Kd (GTPase-LHL RNA) [nM]	Kd (ss-19mer RNA) [nM]	Kd (DABCYL-TAR RNA) [nM]	Kd (DABCYL-RRE RNA) [nM]
DABCYL-Phe-Thr-Thr-Lys-Ala-Leu-Gly-Ile-Ser-Tyr-Gly-Arg-Lys-Lys-Arg-Arg-Gln-Arg-Arg-Arg-Pro-Pro-Gln-Gly-Ser-Gln-Thr-His-Gln-Val-Ser-Leu-Ser-Lys-Gln ({DABCYL}-FTTKALGISYGRKKRRQRRRPPQGSQTHQVSLSKQ) [DABCYL-ADP-1]	39	35 nM and 41 nM	33	131	511	–	–
TAMRA-Asp-Thr-Arg-Gln-Ala-Arg-Arg-Asn-Arg-Arg-Arg-Arg-Trp-Arg-Glu Arg-Gln-Arg ({TAMRA}-DTRQARRNRRRRWRERQR) [TAMRA-Rev]	–	–	–	–	–	11000	137 ± 23
